According to ChEMBL document CHEMBL1201862, “PubChem BioAssay data set” (2004):
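A five-concentration, 48-hour dose response in 96-well plates underlies each endpoint, interpolated linearly between surrounding concentrations. GI50 = concentration required for 50% inhibition of growth.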 Activity calls are given as the source filed them. Rule as the data show it: active = GI50 up to about 1.1 µM and inactive = higher.

Key:
Assay in all cases: growth of human tumour cells (NCI), 48 h
786-0 = system: 786-0
A549 = system: A549
ACHN = system: ACHN
CAKI-1 = system: CAKI-1
CCRF-CEM = system: CCRF-CEM
COLO 205 = system: COLO 205
DLD-1 = system: DLD-1
DMS-114 = system: DMS-114
DMS-273 = system: DMS-273
EKVX = system: EKVX
HCC 2998 = system: HCC 2998
HCT-116 = system: HCT-116
HL-60 = system: HL-60
HOP-18 = system: HOP-18
HOP-62 = system: HOP-62
HOP-92 = system: HOP-92
HT-29 = system: HT-29
K562 = system: K562
KM-20L2 = system: KM-20L2
KM12 = system: KM12
LOX IMVI = system: LOX IMVI
LXFL 529 = system: LXFL 529
M14 = system: M14
M19-MEL = system: M19-MEL
MOLT-4 = system: MOLT-4
Malme-3M = system: Malme-3M
NCI-H226 = system: NCI-H226
NCI-H23 = system: NCI-H23
NCI-H460 = system: NCI-H460
NCI-H522 = system: NCI-H522
OVCAR-3 = system: OVCAR-3
OVCAR-4 = system: OVCAR-4
OVCAR-5 = system: OVCAR-5
OVCAR-8 = system: OVCAR-8
RPMI-8226 = system: RPMI-8226
RXF 393 = system: RXF 393
RXF 631 = system: RXF 631
SF-268 = system: SF-268
SF-295 = system: SF-295
SF-539 = system: SF-539
SK-MEL-28 = system: SK-MEL-28
SK-MEL-2 = system: SK-MEL-2
SK-MEL-5 = system: SK-MEL-5
SK-OV-3 = system: SK-OV-3
SN12C = system: SN12C
SNB-19 = system: SNB-19
SNB-75 = system: SNB-75
SNB-78 = system: SNB-78
SR = system: SR
SW-620 = system: SW-620
TK-10 = system: TK-10
U-251 = system: U-251
UACC-257 = system: UACC-257
UACC-62 = system: UACC-62
UO-31 = system: UO-31
XF498 = system: XF498

Measured: GI50

CCOC(=O)/C(=C/c1ccc[nH]1)P(=O)(OCC)OCC
inactive: 786-0 > 100 µM | A549 > 100 µM | ACHN > 100 µM | CAKI-1 > 100 µM | CCRF-CEM > 100 µM | COLO 205 > 100 µM | DLD-1 > 100 µM | DMS-114 > 100 µM | DMS-273 > 100 µM | EKVX > 100 µM | HCC 2998 > 100 µM | HCT-116 > 100 µM | HL-60 > 100 µM | HOP-18 > 100 µM | HOP-62 > 100 µM | HOP-92 94.2 µM | HT-29 > 100 µM | K562 > 100 µM | KM-20L2 > 100 µM | KM12 > 100 µM | LOX IMVI > 100 µM | LXFL 529 > 100 µM | M14 > 100 µM | M19-MEL > 100 µM | MOLT-4 > 100 µM | Malme-3M > 100 µM | NCI-H226 > 100 µM | NCI-H23 > 100 µM | NCI-H460 > 100 µM | NCI-H522 > 100 µM | OVCAR-3 > 100 µM | OVCAR-4 > 100 µM | OVCAR-5 > 100 µM | OVCAR-8 > 100 µM | RPMI-8226 > 100 µM | RXF 393 > 100 µM | RXF 631 > 100 µM | SF-268 > 100 µM | SF-295 > 100 µM | SF-539 > 100 µM | SK-MEL-28 > 100 µM | SK-MEL-2 > 100 µM | SK-MEL-5 > 100 µM | SK-OV-3 > 100 µM | SN12C > 100 µM | SNB-19 > 100 µM | SNB-75 77.6 µM | SNB-78 > 100 µM | SR > 100 µM | SW-620 > 100 µM | TK-10 > 100 µM | U-251 > 100 µM | UACC-257 > 100 µM | UACC-62 > 100 µM | UO-31 > 100 µM | XF498 > 100 µM
